How the values were obtained:
WA09 hESCs = experiment: Random forest prediction of teratogenicity from metabolomics of spent media of dosed hESCs; assay type: cell-based, human; settings: blind study; model trained on TS1, 142 mass features; circulating dose
WA09 hES cells = experiment: Pathway enrichment analysis of annotated mass features on KEGG human metabolic networks (Example 8); assay type: cell-based; settings: across dose levels; positive and negative features
Method: Pathways enrichment analysis was performed by mapping annotated mass features for each experimental compound to human metabolic networks using KEGG compound ids. Hypergeometric p-values and false discovery rates (FDR) were used to assign a quantitative measure of statistical significance to each network. Features derived from ESI negative and positive mode for each experimental compound were pooled for this analysis. False positive results can be generated by isobaric compounds that generate multiple “hits” in a network from the same mass, so unique masses instead of unique compound ids were used for these calculations. The relevant parameters used to calculate hypergeometric p-values for each network were: the number of unique mass “hits”, the number of unique masses in the network, and the total number of unique masses in all of the human networks in the KEGG database. For each experimental compound, the p-values for the derived networks were converted to FDR using the Benjamini and Hochberg (1995) correction.
Feature Selection was performed on a per compound basis using a one-way anova evaluating the difference of dose level means and on a per dose basis using Welch T-tests and PLS-DA VIP score. […] If a feature was selected as interesting in a drug or dose level comparison it was then evaluated experiment wide for fold changes. Following feature selection only significant features putatively annotated as mammalian in origin and present on KEGG network diagrams were further evaluated. […] These selection criteria focused the analysis on biochemical pathways.
Following selection, features were passed through a quality control evaluation of extracted ion chromatograms (EICs) to confirm the validity of individual mass features. Features passing quality control were further evaluated to confirm estimated fold changes. After removing poor quality and duplicate features, the remaining ESI positive and ESI negative mode features were combined into a unified dataset for evaluation of pathway enrichment by treatment.

Compound: CN(C)CCOC(C)(c1ccccc1)c1ccccn1 (stereo not shown) [Doxylamine]
- Predicted teratogenicity (random forest statistical model) (WA09 hESCs): Non
- Number of unique KEGG ID annotations: Alanine, aspartate and glutamate metabolism (WA09 hES cells): 1
- Number of unique KEGG ID annotations: Arginine and proline metabolism (WA09 hES cells): 1
- Number of unique KEGG ID annotations: Ascorbate and aldarate metabolism (WA09 hES cells): 2
- Number of unique KEGG ID annotations: Citrate cycle (TCA cycle) (WA09 hES cells): 1
- Number of unique KEGG ID annotations: Cysteine and methionine metabolism (WA09 hES cells): 2
- Number of unique KEGG ID annotations: Galactose metabolism (WA09 hES cells): 2
- Number of unique KEGG ID annotations: Glutathione metabolism (WA09 hES cells): 1
- Number of unique KEGG ID annotations: Glyoxylate and dicarboxylate metabolism (WA09 hES cells): 3
- Number of unique KEGG ID annotations: Nicotinate and nicotinamide metabolism (WA09 hES cells): 5
- Number of unique KEGG ID annotations: Pantothenate and CoA biosynthesis (WA09 hES cells): 3
- Number of unique KEGG ID annotations: Pentose and glucuronate interconversions (WA09 hES cells): 3
- Number of unique KEGG ID annotations: Pentose phosphate pathway (WA09 hES cells): 1
- Number of unique KEGG ID annotations: Propanoate metabolism (WA09 hES cells): 3
- Number of unique KEGG ID annotations: Pyruvate metabolism (WA09 hES cells): 6
- Number of unique KEGG ID annotations: Vitamin B6 metabolism (WA09 hES cells): 3
